Results reported in patent US7495104B2, “Quinoline or quinazoline derivatives inhibiting auto-phosphorylation of fibroblast growth factor receptors” (Kirin Beer Kabushiki Kaisha, priority 2001, dated 2009).
pIC50: −log10 of the molar value.

Molecular target: Bek (Homo sapiens, UniProt P21802)
Experiment: Inhibitory activity against Bek-autophosphorylation using ELISA method in OCUM-2MD3 cells
Type: cell-based
Conditions: 1 hr with compound, read-out: IC50 (concentration necessary for inhibiting 50% of Bek-phosphorylation)
Procedure, shortened: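 Sandwich ELISA (anti-phosphotyrosine capture, anti-Bek detection, peroxidase, 450 nm) measured Bek autophosphorylation in OCUM-2MD3 lysates after 1 hr compound treatment at 37° C in 0.1% serum medium. IC50 derived by scaling between no-drug (100%) and excess positive control at 1000 nM (0%).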

Sequence of Bek (P21802 431-767 limits assumed): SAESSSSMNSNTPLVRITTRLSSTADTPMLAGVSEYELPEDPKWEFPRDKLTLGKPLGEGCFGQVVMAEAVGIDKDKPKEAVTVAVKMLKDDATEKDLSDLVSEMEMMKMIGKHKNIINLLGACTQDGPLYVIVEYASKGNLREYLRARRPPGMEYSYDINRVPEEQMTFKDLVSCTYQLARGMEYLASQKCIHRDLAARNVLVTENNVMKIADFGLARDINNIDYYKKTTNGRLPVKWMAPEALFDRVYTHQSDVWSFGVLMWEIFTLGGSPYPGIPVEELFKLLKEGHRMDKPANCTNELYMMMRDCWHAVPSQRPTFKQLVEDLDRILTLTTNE

pIC50	SMILES
6.82	COc1cc2c(Oc3ccc(Nc4ccc(C(C)(C)C)cc4)cc3F)ccnc2cc1OCCCN1CCC(CCO)CC1 [Compound 272, 2-[1-(3-{4-[4-(4-Tert-butyl-phenylamino)-2-fluoro-phenoxy]-6-methoxy-quinolin-7-yloxy}-propyl)-piperidin-4-yl]-ethanol]
7.50	COc1cc2c(Oc3ccc(NC(=O)NCCC(C)(C)C)c(Cl)c3)ccnc2cc1OCCN1CCC(CO)CC1 [Compound 275, 1-(2-Chloro-4-{7-[2-(4-hydroxymethyl-piperidin-1-yl)-ethoxy]-6-methoxy-quinolin-4-yloxy}-phenyl)-3-(3,3-dimethyl-butyl)-urea]
6.21	COc1cc2c(Oc3ccc(Nc4ccc(C(C)(C)C)cc4)c(Cl)c3)ccnc2cc1OCCCN1CCC(CO)CC1 [Compound 277, [1-(3-{4-[4-(4-Tert-butyl-phenylamino)-3-chloro-phenoxy]-6-methoxy-quinolin-7-yloxy}-propyl)-piperidin-4-yl]-methanol]
6.56	COc1cc2c(Oc3ccc(Nc4ccc(C(C)(C)C)cc4)cc3)ccnc2cc1OCCN1CCC(OC)CC1 [Compound 280, (4-Tert-butyl-phenyl)-(4-{6-methoxy-7-[2-(4-methoxy-piperidin-1-yl)-ethoxy]-quinolin-4-yloxy}-phenyl)-amine]
6.61	COCC1CCN(CCOc2cc3nccc(Oc4ccc(Nc5ccc(C(C)(C)C)cc5)cc4)c3cc2OC)CC1 [Compound 281, (4-Tert-butyl-phenyl)-(4-{6-methoxy-7-[2-(4-methoxymethyl-piperidin-1-yl)-ethoxy]-quinolin-4-yloxy}-phenyl)-amine]
6.61	COc1cc2c(Oc3ccc(Nc4ccc(C(C)(C)C)cc4)cc3F)ccnc2cc1OCCN1CCC(O)CC1 [Compound 284, 1-(2-{4-[4-(4-Tert-butyl-phenylamino)-2-fluoro-phenoxy]-6-methoxy-quinolin-7-yloxy}-ethyl)-piperidin-4-ol]
7.64	COc1cc2c(Oc3ccc(NC(=O)NCCC(C)(C)C)cc3F)ccnc2cc1OCCCN1CCC(CO)CC1 [Compound 285, 1-(3,3-Dimethyl-butyl)-3-(3-fluoro-4-{7-[3-(4-hydroxymethyl-piperidin-1-yl)-propoxy]-6-methoxy-quinolin-4-yloxy}-phenyl)-urea]
7.76	COc1cc2c(Oc3ccc(NC(=O)NCCC(C)(C)C)cc3F)ccnc2cc1OCCCN1CCC(O)CC1 [Compound 286, 1-(3,3-Dimethyl-butyl)-3-(3-fluoro-4-{7-[3-(4-hydroxy-piperidin-1-yl)-propoxy]-6-methoxy-quinolin-4-yloxy}-phenyl)-urea]
6.61	COc1cc2c(Oc3ccc(Nc4ccc(C(C)(C)C)cc4)c(F)c3)ccnc2cc1OCCCN1CCC(O)CC1 [Compound 289, 1-(3-{4-[4-(4-Tert-butyl-phenylamino)-3-fluoro-phenoxy]-6-methoxy-quinolin-7-yloxy}-propyl)-piperidin-4-ol]
6.63	COc1cc2c(Oc3ccc(Nc4ccc(C(C)(C)C)cc4)c(F)c3)ccnc2cc1OCCCN1CCC(CO)CC1 [Compound 290, [1-(3-{4-[4-(4-Tert-butyl-phenylamino)-3-fluoro-phenoxy]-6-methoxy-quinolin-7-yloxy}-propyl)-piperidin-4-yl]-methanol]

The next lines start with the compound.

SMILES	pIC50
COc1cc2c(Oc3ccc(Nc4ccc(C(C)(C)C)cc4)cc3F)ccnc2cc1OCCCN1CCC(O)CC1 [Compound 273, 1-(3-{4-[4-(4-Tert-butyl-phenylamino)-2-fluoro-phenoxy]-6-methoxy-quinolin-7-yloxy}-propyl)-piperidin-4-ol]	6.79
COc1cc2c(Oc3ccc(NC(=O)NCCC(C)(C)C)c(Cl)c3)ccnc2cc1OCCN1CCC(O)CC1 [Compound 274, 1-(2-Chloro-4-{7-[2-(4-hydroxy-piperidin-1-yl)-ethoxy]-6-methoxy-quinolin-4-yloxy}-phenyl)-3-(3,3-dimethyl-butyl)-urea]	7.56
COc1cc2c(Oc3ccc(Nc4ccc(C(C)(C)C)cc4)c(Cl)c3)ccnc2cc1OCCCN1CCC(O)CC1 [Compound 276, 1-(3-{4-[4-(4-Tert-butyl-phenylamino)-3-chloro-phenoxy]-6-methoxy-quinolin-7-yloxy}-propyl)-piperidin-4-ol]	5.95
COc1cc2c(Oc3ccc(Nc4ccc(C(C)(C)C)cc4)c(Cl)c3)ccnc2cc1OCCN1CCC(O)CC1 [Compound 278, 1-(2-{4-[4-(4-Tert-butyl-phenylamino)-3-chloro-phenoxy]-6-methoxy-quinolin-7-yloxy}-ethyl)-piperidin-4-ol]	5.95
COc1cc2c(Oc3ccc(Nc4ccc(C(C)(C)C)cc4)c(Cl)c3)ccnc2cc1OCCN1CCC(CO)CC1 [Compound 279, [1-(2-{4-[4-(4-Tert-butyl-phenylamino)-3-chloro-phenoxy]-6-methoxy-quinolin-7-yloxy}-ethyl)-piperidin-4-yl]-methanol]	6.43
COCC1CCN(CCCOc2cc3nccc(Oc4ccc(NC(=O)NCCC(C)(C)C)cc4)c3cc2OC)CC1 [Compound 282, 1-(3,3-Dimethyl-butyl)-3-(4-{6-methoxy-7-[3-(4-methoxymethyl-piperidin-1-yl)-propoxy]-quinolin-4-yloxy}-phenyl)-urea]	7.50
COc1cc2c(Oc3ccc(Nc4ccc(C(C)(C)C)cc4)cc3F)ccnc2cc1OCCN1CCC(CO)CC1 [Compound 283, [1-(2-{4-[4-(4-Tert-butyl-phenylamino)-2-fluoro-phenoxy]-6-methoxy-quinolin-7-yloxy}-ethyl)-piperidin-4-yl]-methanol]	6.78
COc1cc2c(Oc3ccc(Nc4ccc(C(C)(C)C)cc4)c(F)c3)ccnc2cc1OCCN1CCC(O)CC1 [Compound 287, 1-(2-{4-[4-(4-Tert-butyl-phenylamino)-3-fluoro-phenoxy]-6-methoxy-quinolin-7-yloxy}-ethyl)-piperidin-4-ol]	6.59
COc1cc2c(Oc3ccc(Nc4ccc(C(C)(C)C)cc4)c(F)c3)ccnc2cc1OCCN1CCC(CO)CC1 [Compound 288, [1-(2-{4-[4-(4-Tert-butyl-phenylamino)-3-fluoro-phenoxy]-6-methoxy-quinolin-7-yloxy}-ethyl)-piperidin-4-yl]-methanol]	6.96
COc1cc2c(Oc3ccc(NC(=O)NCCC(C)(C)C)c(Cl)c3)ccnc2cc1OCCN1CCC(CCO)CC1 [Compound 292, 1-[2-Chloro-4-(7-{2-[4-(2-hydroxy-ethyl)-piperidin-1-yl]-ethoxy}-6-methoxy-quinolin-4-yloxy)-phenyl]-3-(3,3-dimethyl-butyl)-urea]	7.30
COc1cc2c(Oc3ccc(Nc4ccc(C(C)(C)C)cc4)c(Cl)c3)ccnc2cc1OCCN1CCC(CCO)CC1 [Compound 293, 2-[1-(2-{4-[4-(4-Tert-butyl-phenylamino)-3-chloro-phenoxy]-6-methoxy-quinolin-7-yloxy}-ethyl)-piperidin-4-yl]-ethanol]	5.63
COc1cc2c(Oc3ccc(Nc4ccc(C(C)(C)C)cc4)c(Cl)c3)ccnc2cc1OCCCN1CCC(CCO)CC1 [Compound 294, 2-[1-(3-{4-[4-(4-Tert-butyl-phenylamino)-3-chloro-phenoxy]-6-methoxy-quinolin-7-yloxy}-propyl)-piperidin-4-yl]-ethanol]	5.96
COc1cc2c(Oc3ccc(NC(=O)NCCC(C)(C)C)cc3F)ccnc2cc1OCCN1CCC(CO)CC1 [Compound 295, 1-(3,3-Dimethyl-butyl)-3-(3-fluoro-4-{7-[2-(4-hydroxymethyl-piperidin-1-yl)-ethoxy]-6-methoxy-quinolin-4-yloxy}-phenyl)-urea]	7.84
